Holding throughout (format): binding
Test [1] has as its target T1, SwHKA (hydroxyketoacid aldolase from Sphingomonas wittichii RW1) (Rhizorhabdus wittichii, UniProt A0A9J9HGY6).
T1 construct: gene Swit_5035; N-terminal His6-tag, E. coli BL21(DE3), 251 residues per monomer, homohexamer (trimer of domain-swapped dimers), divalent metal dependent
The test can be described thus: X-ray crystal structure. The settings on record: with hydroxypyruvate in the active site; H-bonds to R69 and R120'.

Test [2] concerns the target T2, SwHKA (hydroxyketoacid aldolase from Sphingomonas wittichii RW1) (Rhizorhabdus wittichii, UniProt A0A9J9HGY6, F210W).
T2 construct: gene Swit_5035; N-terminal His6-tag, E. coli BL21(DE3), 251 residues per monomer, homohexamer (trimer of domain-swapped dimers), divalent metal dependent
The test can be described thus: X-ray crystal structure, […] A, soaked crystal. The settings on record: MgCl2 soak; bound in monomer B only; PDB id printed as 7OBU in the text but 7O87 (as F201W-HPA) in the Figure 2 legend.

In test [3] the target is T3, SwHKA (hydroxyketoacid aldolase from Sphingomonas wittichii RW1) (Rhizorhabdus wittichii, UniProt A0A9J9HGY6, S116C).
T3 construct: gene Swit_5035; N-terminal His6-tag, E. coli BL21(DE3), 251 residues per monomer, homohexamer (trimer of domain-swapped dimers), divalent metal dependent
T3 sequence (A0A9J9HGY6 whole entry S116C, the tested form may be a part): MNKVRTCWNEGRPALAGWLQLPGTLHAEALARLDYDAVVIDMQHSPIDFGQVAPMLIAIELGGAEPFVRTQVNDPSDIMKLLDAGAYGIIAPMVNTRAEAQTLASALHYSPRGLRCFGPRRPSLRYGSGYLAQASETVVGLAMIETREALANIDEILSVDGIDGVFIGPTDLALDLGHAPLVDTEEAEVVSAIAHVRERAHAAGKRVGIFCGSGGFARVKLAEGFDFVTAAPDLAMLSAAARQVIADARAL
The test can be described thus: nanoDSF melting temperature. The settings on record: absolute Tm, not a shift; MgCl2 10 mM, hydroxypyruvate 20 mM, Hepes 20 mM pH 7.5.

The target of test [4] is T4, SwHKA (hydroxyketoacid aldolase from Sphingomonas wittichii RW1) (Rhizorhabdus wittichii, UniProt A0A9J9HGY6, S116A).
T4 construct: gene Swit_5035; N-terminal His6-tag, E. coli BL21(DE3), 251 residues per monomer, homohexamer (trimer of domain-swapped dimers), divalent metal dependent
T4 sequence (A0A9J9HGY6 whole entry S116A, the tested form may be a part): as the sequence (A0A9J9HGY6 whole entry S116C, the tested form may be a part) above, with C116A counted along it
Briefly: X-ray crystal structure. The settings on record: bound to the active-state metal, distorted geometry.

The structures appear in SMILES notation.

As a reminder, the Tm is the temperature at which the thermal transition is half complete.

T1 sequence (A0A9J9HGY6 whole entry, the tested form may be a part): as the sequence (A0A9J9HGY6 whole entry S116C, the tested form may be a part) above, with C116S counted along it
T2 sequence (A0A9J9HGY6 whole entry F210W, the tested form may be a part): as the sequence (A0A9J9HGY6 whole entry S116C, the tested form may be a part) above, with C116S, F210W counted along it

On to `O=C[C@H](O)CO` [D-glyceraldehyde], for which, in test [1], the X-ray crystal structure result is recorded as “Close‐up view of the active site of SwHKA with DGA bound (PDBID 8ADQ)”.
With `O=C(O)C(=O)CO` [hydroxypyruvate], in test [2], the “X-ray crystal structure, 1.2 A, soaked crystal” value is “crystal structure of variant F210W soaked with MgCl2 and hydroxypyruvate could now be solved”. Moreover, the Tm in test [3] came out at 73 °C. Further, the X-ray crystal structure result in test [4] is listed as “showed a strangely distorted geometry (Figure S13, S116A‐HPA PDBID 7NNK)”.
